Source: ChEMBL document CHEMBL4765420, “Design, synthesis and biological evaluation of novel HDAC inhibitors with improved pharmacokinetic profile in breast cancer” (Eur J Med Chem, 2020)
Activity calls are given as the source filed them. The calls are words filed in the database; no cut-off is given here.

Columns and labels:
[1] = target: T1, Protein deacetylase HDAC6 (Homo sapiens, UniProt Q9UBN7); assay: Inhibition of recombinant human His-tagged HDAC6 expressed in baculovirus infected insect cells using Ac-Leu-Gly-Lys(Ac)-AMC as substrate measured after 30 mins by fluorescence assay
T1 sequence (Q9UBN7 whole entry): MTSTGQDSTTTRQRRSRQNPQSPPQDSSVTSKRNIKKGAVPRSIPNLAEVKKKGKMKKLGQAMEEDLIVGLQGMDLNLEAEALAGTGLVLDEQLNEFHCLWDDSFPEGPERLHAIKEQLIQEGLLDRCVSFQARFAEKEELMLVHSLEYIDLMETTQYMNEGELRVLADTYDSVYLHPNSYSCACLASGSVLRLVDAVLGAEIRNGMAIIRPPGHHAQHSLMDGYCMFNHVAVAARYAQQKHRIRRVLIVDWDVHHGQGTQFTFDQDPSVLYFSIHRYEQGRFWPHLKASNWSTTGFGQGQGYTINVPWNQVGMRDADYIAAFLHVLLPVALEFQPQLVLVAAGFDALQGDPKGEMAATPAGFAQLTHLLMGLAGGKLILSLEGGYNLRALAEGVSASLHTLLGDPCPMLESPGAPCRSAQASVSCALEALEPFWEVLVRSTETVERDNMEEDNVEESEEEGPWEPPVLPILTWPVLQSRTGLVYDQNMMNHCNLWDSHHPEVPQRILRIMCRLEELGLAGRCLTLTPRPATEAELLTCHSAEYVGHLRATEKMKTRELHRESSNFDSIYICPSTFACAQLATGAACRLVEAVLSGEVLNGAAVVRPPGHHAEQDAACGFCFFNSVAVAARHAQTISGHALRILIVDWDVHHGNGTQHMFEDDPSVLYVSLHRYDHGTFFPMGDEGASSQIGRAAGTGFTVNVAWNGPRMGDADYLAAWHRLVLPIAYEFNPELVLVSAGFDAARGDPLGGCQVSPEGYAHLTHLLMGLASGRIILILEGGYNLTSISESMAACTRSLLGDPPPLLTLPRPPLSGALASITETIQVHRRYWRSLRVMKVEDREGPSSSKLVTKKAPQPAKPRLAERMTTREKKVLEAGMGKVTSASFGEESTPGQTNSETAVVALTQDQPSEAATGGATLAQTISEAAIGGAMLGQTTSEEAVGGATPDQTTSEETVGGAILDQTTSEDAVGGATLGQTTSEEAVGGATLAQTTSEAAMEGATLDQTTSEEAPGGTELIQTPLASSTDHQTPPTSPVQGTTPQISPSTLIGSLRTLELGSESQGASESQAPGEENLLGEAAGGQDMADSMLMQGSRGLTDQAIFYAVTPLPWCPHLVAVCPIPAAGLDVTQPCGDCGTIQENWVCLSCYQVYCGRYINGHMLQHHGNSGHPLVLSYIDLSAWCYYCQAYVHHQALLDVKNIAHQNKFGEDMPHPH

MDA-MB-231 [2] = assay: Antiproliferative activity against human MDA-MB-231 cells measured after 24 hrs by MTT assay; assay type: functional, cell-based; settings: MDA-MB-231, 24 h
Histone deacetylase 1 = Histone deacetylase 1 (Homo sapiens, UniProt Q13547); assay: Inhibition of recombinant human His-tagged HDAC1 expressed in insect cells using Ac-Leu-Gly-Lys(Ac)-AMC as substrate measured after 30 mins by fluorescence assay
Histone deacetylase 2 = Histone deacetylase 2 (Homo sapiens, UniProt Q92769); assay: Inhibition of human full-length C-terminal FLAG-tagged HDAC2 expressed in baculovirus infected Sf9 insect cells using Ac-Leu-Gly-Lys(Ac)-AMC as substrate measured after 30 mins by fluorescence assay; assay type: cell-based
[3] = target: Histone deacetylase 3/NCoR1 (Homo sapiens, UniProt O15379); assay: Inhibition of recombinant human GST-fused HDAC3/NCOR1 (397 to 503 residues) expressed in baculovirus infected insect cells using Ac-Leu-Gly-Lys(Ac)-AMC as substrate measured after 30 mins by fluorescence assay
Histone deacetylase 8 = target: T2, Histone deacetylase 8 (Homo sapiens, UniProt Q9BY41); assay: Inhibition of recombinant human full-length C-terminal His-tagged HDAC8 expressed in baculovirus infected Sf9 insect cells using Ac-Leu-Gly-Lys(Tfa)-AMC as substrate measured after 30 mins by fluorescence assay
T2 sequence (Q9BY41 whole entry): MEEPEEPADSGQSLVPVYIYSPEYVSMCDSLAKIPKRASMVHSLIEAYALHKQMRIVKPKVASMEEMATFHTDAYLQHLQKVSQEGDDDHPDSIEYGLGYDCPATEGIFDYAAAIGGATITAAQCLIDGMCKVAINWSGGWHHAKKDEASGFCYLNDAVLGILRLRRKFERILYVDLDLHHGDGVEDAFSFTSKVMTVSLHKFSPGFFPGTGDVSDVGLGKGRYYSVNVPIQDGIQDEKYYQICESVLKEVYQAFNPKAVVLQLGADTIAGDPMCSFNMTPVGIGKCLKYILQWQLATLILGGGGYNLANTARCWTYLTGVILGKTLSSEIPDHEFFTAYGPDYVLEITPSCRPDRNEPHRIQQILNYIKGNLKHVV

Histone deacetylase 4 = Histone deacetylase 4 (Homo sapiens, UniProt P56524); assay: Inhibition of recombinant human N-terminal GST-tagged HDAC4 (627 to end residues) expressed in baculovirus infected Sf9 insect cells using AcLeu-Gly-Lys(Tfa)-AMC as substrate measured after 30 mins by fluorescence assay
Histone deacetylase 5 = Histone deacetylase 5 (Homo sapiens, UniProt Q9UQL6); assay: Inhibition of recombinant human full-length N-terminal GST-tagged HDAC5 expressed in baculovirus infected Sf9 insect cells using AcLeu-Gly-Lys(Tfa)-AMC as substrate measured after 30 mins by fluorescence assay
Histone deacetylase 7 = target: T3, Histone deacetylase 7 (Homo sapiens, UniProt Q8WUI4); assay: Inhibition of HDAC7 (unknown origin) using AcLeu-Gly-Lys(Tfa)-AMC as substrate measured after 30 mins by fluorescence assay
T3 sequence (Q8WUI4 whole entry): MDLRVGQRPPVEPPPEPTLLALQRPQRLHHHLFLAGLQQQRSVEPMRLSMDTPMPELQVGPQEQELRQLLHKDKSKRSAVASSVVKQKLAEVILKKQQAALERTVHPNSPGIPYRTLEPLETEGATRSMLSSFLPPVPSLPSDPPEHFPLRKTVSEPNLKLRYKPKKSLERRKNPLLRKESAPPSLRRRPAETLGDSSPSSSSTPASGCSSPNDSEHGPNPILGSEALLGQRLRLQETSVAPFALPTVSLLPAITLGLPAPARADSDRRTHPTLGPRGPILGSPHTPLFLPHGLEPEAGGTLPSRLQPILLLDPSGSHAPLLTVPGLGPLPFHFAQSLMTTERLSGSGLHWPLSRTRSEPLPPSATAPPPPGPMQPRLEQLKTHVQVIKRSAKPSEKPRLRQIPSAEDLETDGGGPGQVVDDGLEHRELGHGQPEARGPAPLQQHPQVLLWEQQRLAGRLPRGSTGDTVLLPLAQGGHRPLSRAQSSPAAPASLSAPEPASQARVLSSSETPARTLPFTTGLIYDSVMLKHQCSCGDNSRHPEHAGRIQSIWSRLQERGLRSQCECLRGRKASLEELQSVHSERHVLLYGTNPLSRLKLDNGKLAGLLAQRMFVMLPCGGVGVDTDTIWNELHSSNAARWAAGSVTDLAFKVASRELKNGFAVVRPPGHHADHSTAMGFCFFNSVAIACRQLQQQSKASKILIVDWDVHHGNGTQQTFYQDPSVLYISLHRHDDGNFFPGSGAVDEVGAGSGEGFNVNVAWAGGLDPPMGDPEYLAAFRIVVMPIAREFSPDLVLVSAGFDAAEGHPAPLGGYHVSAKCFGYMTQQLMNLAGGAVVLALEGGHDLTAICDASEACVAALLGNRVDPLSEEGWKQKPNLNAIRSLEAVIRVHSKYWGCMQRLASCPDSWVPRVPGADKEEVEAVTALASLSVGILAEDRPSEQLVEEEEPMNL

Histone deacetylase 9 = Histone deacetylase 9 (Homo sapiens, UniProt Q9UKV0); assay: Inhibition of recombinant human full-length N-terminal GST-tagged HDAC9 (1 to 1069 residues) expressed in wheat germ expression system using Ac-Leu-Gly-Lys(Tfa)-AMC as substrate measured after 30 mins by fluorescence assay
Histone deacetylase 11 = target: T4, Histone deacetylase 11 (Homo sapiens, UniProt Q96DB2); assay: Inhibition of recombinant human N-terminal His-tagged HDAC11 expressed in baculovirus infected Sf9 insect cells using Ac-Arg-His-Lys(Ac)-Lys(Ac)-AMC as substrate measured after 30 mins by fluorescence assay
T4 sequence (Q96DB2 whole entry): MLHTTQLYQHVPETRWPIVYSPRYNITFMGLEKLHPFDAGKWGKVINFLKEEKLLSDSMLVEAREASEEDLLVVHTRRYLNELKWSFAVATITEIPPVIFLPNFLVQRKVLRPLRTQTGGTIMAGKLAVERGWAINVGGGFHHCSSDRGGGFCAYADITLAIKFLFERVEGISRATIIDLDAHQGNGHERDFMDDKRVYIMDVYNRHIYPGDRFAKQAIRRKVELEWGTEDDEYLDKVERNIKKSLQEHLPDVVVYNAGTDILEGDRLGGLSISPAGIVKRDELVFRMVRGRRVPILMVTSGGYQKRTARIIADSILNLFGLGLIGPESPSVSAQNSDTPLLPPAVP

[4] = Half life in Beagle dog at 20 mg/kg, po by LC-MS/MS analysis; assay type: ADME, organism-based, Canis lupus familiaris; settings: in vivo
[5] = Tmax in Beagle dog at 20 mg/kg, po by LC-MS/MS analysis; assay type: ADME, organism-based, Canis lupus familiaris; settings: in vivo
[6] = Cmax in Beagle dog at 20 mg/kg, po by LC-MS/MS analysis; assay type: ADME, organism-based, Canis lupus familiaris; design: route oral, dose 20 mg/kg; settings: in vivo
[7] = AUC (0 to t) in Beagle dog at 20 mg/kg, po by LC-MS/MS analysis; assay type: ADME, organism-based, Canis lupus familiaris; design: dose 20 mg/kg; settings: in vivo
[8] = AUC (0 to infinity) in Beagle dog at 20 mg/kg, po by LC-MS/MS analysis; assay type: ADME, organism-based, Canis lupus familiaris; design: route oral, time infinity, dose 20 mg/kg; settings: in vivo
MDA-MB-231 [9] = assay: Antimetastatic activity against CM-Dil labeled human MDA-MB-231 cells xenografted in Zebrafish AB assessed as reduction in tail metastasis at 2.5 ug/ml measured after 5 days by fluorescence microscopic analysis; assay type: functional, cell-based; settings: dose 2.5 µg/ml, time 5.0 day

Histone deacetylase 2, sequence (Q92769 whole entry, the tested form may be a part): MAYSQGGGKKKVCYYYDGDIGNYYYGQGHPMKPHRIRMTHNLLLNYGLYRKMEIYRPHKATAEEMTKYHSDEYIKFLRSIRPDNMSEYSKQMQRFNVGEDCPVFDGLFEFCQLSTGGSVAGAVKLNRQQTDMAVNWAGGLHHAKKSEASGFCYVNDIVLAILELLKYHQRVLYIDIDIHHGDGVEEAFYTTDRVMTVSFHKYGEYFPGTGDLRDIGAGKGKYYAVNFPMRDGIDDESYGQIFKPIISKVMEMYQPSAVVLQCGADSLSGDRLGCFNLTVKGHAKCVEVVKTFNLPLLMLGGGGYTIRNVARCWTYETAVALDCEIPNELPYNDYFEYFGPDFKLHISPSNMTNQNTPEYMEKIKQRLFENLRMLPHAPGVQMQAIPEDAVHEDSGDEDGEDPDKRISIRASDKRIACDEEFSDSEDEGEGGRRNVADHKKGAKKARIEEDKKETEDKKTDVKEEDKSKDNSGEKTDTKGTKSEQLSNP
Histone deacetylase 4, sequence (P56524 whole entry): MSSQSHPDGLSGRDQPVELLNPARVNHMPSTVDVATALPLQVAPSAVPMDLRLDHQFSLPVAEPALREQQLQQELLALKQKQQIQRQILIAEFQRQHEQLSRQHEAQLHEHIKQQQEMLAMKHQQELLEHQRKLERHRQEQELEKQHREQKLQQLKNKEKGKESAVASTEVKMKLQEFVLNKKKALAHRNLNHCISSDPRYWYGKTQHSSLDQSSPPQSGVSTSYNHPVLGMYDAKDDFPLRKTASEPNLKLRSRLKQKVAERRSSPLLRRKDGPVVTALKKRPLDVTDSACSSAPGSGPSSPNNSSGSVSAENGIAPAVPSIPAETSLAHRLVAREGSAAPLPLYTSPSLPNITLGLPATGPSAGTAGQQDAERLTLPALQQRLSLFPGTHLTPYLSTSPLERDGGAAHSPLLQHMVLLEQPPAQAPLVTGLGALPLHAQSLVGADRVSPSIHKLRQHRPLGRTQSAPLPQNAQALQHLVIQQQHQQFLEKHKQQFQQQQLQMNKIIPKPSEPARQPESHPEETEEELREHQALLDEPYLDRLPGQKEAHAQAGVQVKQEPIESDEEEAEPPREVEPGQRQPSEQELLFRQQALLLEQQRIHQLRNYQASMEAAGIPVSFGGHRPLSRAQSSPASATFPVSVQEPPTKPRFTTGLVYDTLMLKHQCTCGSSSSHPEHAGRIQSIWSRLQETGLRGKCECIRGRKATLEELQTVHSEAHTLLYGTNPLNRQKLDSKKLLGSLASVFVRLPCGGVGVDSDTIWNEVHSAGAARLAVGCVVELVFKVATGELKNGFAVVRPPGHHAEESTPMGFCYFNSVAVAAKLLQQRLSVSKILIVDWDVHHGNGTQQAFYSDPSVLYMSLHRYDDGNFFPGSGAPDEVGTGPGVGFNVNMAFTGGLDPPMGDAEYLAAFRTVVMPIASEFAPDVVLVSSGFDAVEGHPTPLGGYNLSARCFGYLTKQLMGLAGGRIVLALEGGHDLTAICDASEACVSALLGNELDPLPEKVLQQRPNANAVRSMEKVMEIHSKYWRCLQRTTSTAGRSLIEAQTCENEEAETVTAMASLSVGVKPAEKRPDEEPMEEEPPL
Histone deacetylase 3/NCoR1, sequence (O15379 whole entry, the tested form may be a part): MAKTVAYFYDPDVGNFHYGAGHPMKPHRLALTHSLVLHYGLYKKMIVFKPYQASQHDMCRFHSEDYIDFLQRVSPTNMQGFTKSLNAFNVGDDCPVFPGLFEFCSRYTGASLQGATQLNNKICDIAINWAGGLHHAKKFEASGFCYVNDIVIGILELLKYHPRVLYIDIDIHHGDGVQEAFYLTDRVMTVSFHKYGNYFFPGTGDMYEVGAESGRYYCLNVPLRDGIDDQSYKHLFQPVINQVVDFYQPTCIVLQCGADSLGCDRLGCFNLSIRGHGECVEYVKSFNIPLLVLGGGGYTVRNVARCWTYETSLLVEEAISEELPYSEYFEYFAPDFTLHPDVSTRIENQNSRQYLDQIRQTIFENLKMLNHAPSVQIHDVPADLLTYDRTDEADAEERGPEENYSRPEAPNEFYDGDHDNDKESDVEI
Histone deacetylase 3/NCoR1, sequence (O75376 whole entry, further chain, the tested form may be a part): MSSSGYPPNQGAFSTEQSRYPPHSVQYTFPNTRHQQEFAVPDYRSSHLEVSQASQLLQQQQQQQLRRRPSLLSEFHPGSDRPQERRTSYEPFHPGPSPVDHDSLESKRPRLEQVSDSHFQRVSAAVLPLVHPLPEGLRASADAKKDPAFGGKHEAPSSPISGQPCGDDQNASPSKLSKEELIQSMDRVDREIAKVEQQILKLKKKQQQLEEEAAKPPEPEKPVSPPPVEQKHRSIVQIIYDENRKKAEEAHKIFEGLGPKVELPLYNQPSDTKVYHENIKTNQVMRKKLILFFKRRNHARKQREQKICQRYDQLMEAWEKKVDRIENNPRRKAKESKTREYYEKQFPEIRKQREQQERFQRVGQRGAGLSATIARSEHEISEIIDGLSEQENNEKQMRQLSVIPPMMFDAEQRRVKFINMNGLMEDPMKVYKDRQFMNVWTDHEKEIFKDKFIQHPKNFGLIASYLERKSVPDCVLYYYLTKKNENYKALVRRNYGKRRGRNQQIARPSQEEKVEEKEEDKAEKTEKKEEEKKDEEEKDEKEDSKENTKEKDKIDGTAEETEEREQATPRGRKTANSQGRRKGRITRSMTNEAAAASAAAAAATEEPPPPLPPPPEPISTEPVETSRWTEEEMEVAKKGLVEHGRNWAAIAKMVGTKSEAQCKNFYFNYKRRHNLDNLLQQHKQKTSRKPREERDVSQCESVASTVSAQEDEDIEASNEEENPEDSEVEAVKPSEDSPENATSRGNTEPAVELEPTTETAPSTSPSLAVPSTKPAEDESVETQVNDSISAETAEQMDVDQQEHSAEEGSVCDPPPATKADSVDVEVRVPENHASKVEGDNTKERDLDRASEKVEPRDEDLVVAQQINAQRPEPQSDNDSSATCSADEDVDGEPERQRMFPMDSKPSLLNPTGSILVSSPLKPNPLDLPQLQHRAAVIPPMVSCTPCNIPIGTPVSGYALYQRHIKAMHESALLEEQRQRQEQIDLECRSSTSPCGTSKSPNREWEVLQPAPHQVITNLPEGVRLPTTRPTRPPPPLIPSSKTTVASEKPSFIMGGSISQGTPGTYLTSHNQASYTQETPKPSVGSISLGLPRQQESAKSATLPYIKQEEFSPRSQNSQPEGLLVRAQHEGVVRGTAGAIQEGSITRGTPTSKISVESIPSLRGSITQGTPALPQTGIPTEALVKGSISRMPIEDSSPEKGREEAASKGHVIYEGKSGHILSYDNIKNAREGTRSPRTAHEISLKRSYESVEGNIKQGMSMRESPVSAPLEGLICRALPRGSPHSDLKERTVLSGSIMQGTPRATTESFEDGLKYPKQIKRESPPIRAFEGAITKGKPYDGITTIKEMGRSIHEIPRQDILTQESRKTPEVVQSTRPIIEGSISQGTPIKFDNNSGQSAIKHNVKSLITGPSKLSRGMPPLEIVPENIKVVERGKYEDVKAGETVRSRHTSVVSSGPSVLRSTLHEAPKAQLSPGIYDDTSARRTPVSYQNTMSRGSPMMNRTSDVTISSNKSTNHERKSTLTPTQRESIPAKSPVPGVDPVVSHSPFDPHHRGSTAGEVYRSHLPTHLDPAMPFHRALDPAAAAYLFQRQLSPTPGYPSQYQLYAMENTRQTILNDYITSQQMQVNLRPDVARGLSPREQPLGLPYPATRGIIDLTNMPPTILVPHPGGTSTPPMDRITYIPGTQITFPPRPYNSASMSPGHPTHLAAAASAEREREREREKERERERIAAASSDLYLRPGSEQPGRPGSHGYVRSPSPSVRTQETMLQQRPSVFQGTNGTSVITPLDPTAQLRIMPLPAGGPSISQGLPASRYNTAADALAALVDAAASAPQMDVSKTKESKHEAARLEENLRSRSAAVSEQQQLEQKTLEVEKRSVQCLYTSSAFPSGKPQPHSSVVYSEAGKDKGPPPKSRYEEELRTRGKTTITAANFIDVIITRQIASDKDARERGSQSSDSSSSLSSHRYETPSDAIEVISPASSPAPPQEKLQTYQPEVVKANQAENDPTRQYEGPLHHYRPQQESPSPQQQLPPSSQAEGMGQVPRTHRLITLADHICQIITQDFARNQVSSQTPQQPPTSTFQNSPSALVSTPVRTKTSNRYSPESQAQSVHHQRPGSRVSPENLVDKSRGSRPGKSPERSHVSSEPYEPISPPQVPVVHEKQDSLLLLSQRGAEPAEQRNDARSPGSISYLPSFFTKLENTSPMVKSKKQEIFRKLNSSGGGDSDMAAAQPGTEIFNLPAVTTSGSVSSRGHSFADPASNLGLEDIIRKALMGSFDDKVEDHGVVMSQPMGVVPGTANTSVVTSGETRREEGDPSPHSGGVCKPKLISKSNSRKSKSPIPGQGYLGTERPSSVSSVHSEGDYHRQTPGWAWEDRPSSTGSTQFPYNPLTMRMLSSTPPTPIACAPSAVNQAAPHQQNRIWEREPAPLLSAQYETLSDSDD
Histone deacetylase 1, sequence (Q13547 whole entry): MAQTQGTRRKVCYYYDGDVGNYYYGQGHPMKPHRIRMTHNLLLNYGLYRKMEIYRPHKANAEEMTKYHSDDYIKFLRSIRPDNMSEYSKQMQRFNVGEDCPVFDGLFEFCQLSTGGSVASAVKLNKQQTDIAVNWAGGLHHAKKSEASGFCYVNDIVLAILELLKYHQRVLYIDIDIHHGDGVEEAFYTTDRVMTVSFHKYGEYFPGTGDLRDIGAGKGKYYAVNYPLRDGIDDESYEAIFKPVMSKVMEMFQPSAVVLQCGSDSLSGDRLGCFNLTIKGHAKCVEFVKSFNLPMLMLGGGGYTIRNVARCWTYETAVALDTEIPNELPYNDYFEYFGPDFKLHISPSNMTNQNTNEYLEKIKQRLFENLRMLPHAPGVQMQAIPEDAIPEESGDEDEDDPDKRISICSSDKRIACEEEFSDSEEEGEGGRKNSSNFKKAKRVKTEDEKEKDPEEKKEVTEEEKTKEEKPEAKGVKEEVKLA

SMILES	IC50 [1] [µM]	IC50 (MDA-MB-231 [2]) [µM]	also measured
COc1cc(OC)c2c(N3CCS(=O)(=O)CC3)nc(-c3cc(C)c(OCCCCC(=O)NO)c(C)c3)nc2c1	0.13	12.1	
COc1cc(OC)c2c(N3CCOC[C@@H]3C)nc(-c3cc(C)c(OCC(=O)NO)c(C)c3)nc2c1	> 20	29.4	
COc1cc(OC)c2c(N3CCS(=O)(=O)CC3)nc(-c3cc(C)c(OCCCC(=O)NO)c(C)c3)nc2c1	0.85	18.4	
COc1cc(OC)c2c(N3CCS(=O)(=O)CC3)nc(-c3cc(C)c(OCC(=O)NO)c(C)c3)nc2c1	> 20	> 50	
COc1cc(OC)c2c(N3CCOC[C@@H]3C)nc(-c3cc(C)c(OCCCC(=O)NO)c(C)c3)nc2c1	0.36	10.8	
COc1cc(OC)c2c(N3CCSCC3)nc(-c3cc(C)c(OCCCCCC(=O)NO)c(C)c3)nc2c1	0.129	8.89	
COc1cc(OC)c2c(N3CCSCC3)nc(-c3cc(C)c(OCC(=O)NO)c(C)c3)nc2c1	> 20	37.2	
COc1cc(OC)c2c(N3CCOC[C@H]3C)nc(-c3cc(C)c(OCCCC(=O)NO)c(C)c3)nc2c1	0.33	11.3	
COc1cc(OC)c2c(N3CCOCC3)nc(-c3cc(C)c(OCCCC(=O)NO)c(C)c3)nc2c1	0.35	11.4	
COc1cc(OC)c2c(N3CCOCC3)nc(-c3cc(C)c(OCCCCCC(=O)NO)c(C)c3)nc2c1	0.119	5.54	
COc1cc(OC)c2c(N3CCOC[C@H]3C)nc(-c3cc(C)c(OCCCCCC(=O)NO)c(C)c3)nc2c1	0.102	5.97	
COc1cc(OC)c2c(N3CCOC[C@H]3C)nc(-c3cc(C)c(OCCCCC(=O)NO)c(C)c3)nc2c1	0.22	8.35	
COc1cc(OC)c2c(N3CCN(C)CC3)nc(-c3cc(C)c(OCCCCCC(=O)NO)c(C)c3)nc2c1			IC50 (Histone deacetylase 1): 0.0869 µM; IC50 (Histone deacetylase 2): 0.0973 µM; IC50 [3]: 0.0792 µM; IC50 (Histone deacetylase 8): 0.378 µM; IC50 (Histone deacetylase 4): > 1 µM; IC50 (Histone deacetylase 5): > 1 µM; IC50 (Histone deacetylase 7): > 1 µM; IC50 (Histone deacetylase 9): > 1 µM; IC50 (Histone deacetylase 11): > 1 µM; t1/2 [4]: 74.4 min; Tmax [5]: 47.4 min; Cmax [6]: 120.36 ng/mL; AUC(0-t) [7]: 1280 ng·h/mL; AUC [8]: 1289.4 ng·h/mL
COc1cc(OC)c2c(N3CCOC[C@@H]3C)nc(-c3cc(C)c(OCCCCC(=O)NO)c(C)c3)nc2c1	0.19	6.6	
COc1cc(OC)c2c(N3CCSCC3)nc(-c3cc(C)c(OCCCC(=O)NO)c(C)c3)nc2c1	0.42	15.7	
O=C(CCCCCCC(=O)Nc1ccccc1)NO [VORINOSTAT]			t1/2 [4]: 19.2 min; Tmax [5]: 9 min; Cmax [6]: 118.93 ng/mL; AUC(0-t) [7]: 965 ng·h/mL; AUC [8]: 968.32 ng·h/mL; Activity (MDA-MB-231 [9]): Active

Continued, in another order:

IC50 [1] [µM]	IC50 (MDA-MB-231 [2]) [µM]	SMILES	also measured
0.21	7.21	COc1cc(OC)c2c(N3CCOCC3)nc(-c3cc(C)c(OCCCCC(=O)NO)c(C)c3)nc2c1	
> 20	35.9	COc1cc(OC)c2c(N3CCOCC3)nc(-c3cc(C)c(OCC(=O)NO)c(C)c3)nc2c1	
0.29	9.83	COc1cc(OC)c2c(N3CCSCC3)nc(-c3cc(C)c(OCCCCC(=O)NO)c(C)c3)nc2c1	
0.0985	3.79	COc1cc(OC)c2c(N3CCOC[C@@H]3C)nc(-c3cc(C)c(OCCCCCC(=O)NO)c(C)c3)nc2c1	
> 20	31.3	COc1cc(OC)c2c(N3CCOC[C@H]3C)nc(-c3cc(C)c(OCC(=O)NO)c(C)c3)nc2c1	
